Earlier results, collected in US20120122237A1, “HOMOGENEOUS NONCOMPETITIVE DETECTION OF POST TRANSLATIONAL MODIFICATIONS FOR USE IN HIGH THROUGHPUT ASSAYS” (priority 2010, published 2012).

Experiments:
[1] = test system: Polyclonal antibody for 3-PBA; settings: competitive ELISA
[2] = test system: Polyclonal antibody for 3-PBA
[3] = test system: Monoclonal Antibody for Atrazine
[4] = test system: Monoclonal Antibody for Atrazine; settings: competitive ELISA

| Compound | Crossreactivity (%) ELISA [1] | Crossreactivity (%) PHAIA [2] | Crossreactivity (%) PHAIA [3] | Crossreactivity (%) ELISA [4] |
| --- | --- | --- | --- | --- |
| 4-hydroxy 3-PBA | 98% | 0% |  |  |
| O=C(O)c1cccc(Oc2ccccc2)c1 [3-PBA, 3-phenoxybenzoic acid] | 100% | 100% |  |  |
| O=Cc1cccc(Oc2ccccc2)c1 [3-pheonoxy aldehyde] | 10% | 3% |  |  |
| CCNc1nc(Cl)nc(NC(C)C)n1 [atrazine] |  |  | 100% | 100% |
| CCNc1nc(Cl)nc(NC(C)(C)C#N)n1 [cyanazine] |  |  | 0% | 91% |
| CC(C)Nc1nc(Cl)nc(NC(C)C)n1 [propazine] |  |  | 144% | 116% |
| CCNc1nc(Cl)nc(NCC)n1 [simazine] |  |  | 0% | 48% |
